The record followed here is PubChem BioAssay AID290 (DTP/NCI, 2004).

Results filed as inconclusive are left out.

The assay concerns mice, P1798 lymphosarcoma sc, survival or tumor weight T/C. The assay is described as follows: NCI In Vivo Anticancer Drug Screen. Data for tumor model P1798 Lymphosarcoma (subcutaneous) in unknown mice. As to conditions: endpoint: mean tumor weight, higher = larger tumour. How it is done:
The antitumor activity of compounds was measured in mice bearing transplantable tumors. Survival or tumor size were measured and the results are expressed as the measurement made in the treated group (T) divided by the measurement made in the vehicle treated control group (C). The tumor model used in this assay is P1798 Lymphosarcoma (subcutaneous) in unknown mice

Setting [1] is: dose: 4.0 mg/kg/injection, schedule: Q01DX010 (ip), vehicle: saline.
[2] abbreviates: dose: 12.5 mg/kg/injection, schedule: Q01DX010 (ip), vehicle: water.

On to `CCCCn1cnc2c(=S)nc[nH]c21`, for which the T/C runs as follows: (dose: 50.0 mg/kg/injection, schedule: Q01DX010 (ip), vehicle: carboxymethylcellulose (CMC)) 78 % of control; (dose: 100.0 mg/kg/injection, schedule: Q01DX010 (ip), vehicle: carboxymethylcellulose (CMC)) 43 % of control.
As for `CCCNc1ncnc2[nH]ncc12`, the T/C is 71 % of control (dose: 5.0 mg/kg/injection, schedule: Q01DX010 (ip), vehicle: water) and 54 % of control (dose: 10.0 mg/kg/injection, schedule: Q01DX010 (ip), vehicle: water).
Turning to `C=CC(CN1CC1)OC(C)=O` (stereo not drawn), the T/C under setting [1] was 71 % of control; the T/C (dose: 6.0 mg/kg/injection, schedule: Q01DX010 (ip), vehicle: saline) is 64 % of control; the T/C (dose: 8.0 mg/kg/injection, schedule: Q01DX010 (ip), vehicle: saline) is 42 % of control.
Consider `CN(C)c1nc(N(C)C)nc(N(C)C)n1`, for which the T/C by setting is: (dose: 62.5 mg/kg/injection, schedule: Q01DX010 (ip), vehicle: carboxymethylcellulose (CMC)) 119 % of control; (dose: 250.0 mg/kg/injection, schedule: Q01DX010 (ip), vehicle: carboxymethylcellulose (CMC)) 88 % of control; (dose: 500.0 mg/kg/injection, schedule: Q01DX010 (ip), vehicle: carboxymethylcellulose (CMC)) 106 % of control.
In the case of `C[C@@H]1C[C@@H]([C@H](O)CC2CC(=O)NC(=O)C2)C(=O)[C@@H](C)C1`, the T/C (dose: 1.6 mg/kg/injection, schedule: Q01DX010 (ip), vehicle: water) was 86 % of control; the T/C (dose: 3.1 mg/kg/injection, schedule: Q01DX010 (ip), vehicle: water) is 96 % of control; the T/C (dose: 6.3 mg/kg/injection, schedule: Q01DX010 (ip), vehicle: water) is 96 % of control; the T/C under setting [2] is 98 % of control.
On to `NC(Cc1ccc(N(CCCl)CCCl)cc1)C(=O)O` (stereo not drawn), for which the T/C is 86 % of control (dose: 0.5 mg/kg/injection, schedule: Q01DX010 (ip), vehicle: saline); 117 % of control (dose: 0.63 mg/kg/injection, schedule: Q01DX010 (ip), vehicle: carboxymethylcellulose (CMC)); 67 % of control (dose: 1.0 mg/kg/injection, schedule: Q01DX010 (ip), vehicle: saline); 110 % of control (dose: 1.25 mg/kg/injection, schedule: Q01DX010 (ip), vehicle: carboxymethylcellulose (CMC)); 89 % of control (dose: 1.25 mg/kg/injection, schedule: Q01DX010 (ip), vehicle: saline); 77 % of control (dose: 2.0 mg/kg/injection, schedule: Q01DX010 (ip), vehicle: saline). The T/C by setting is: under setting [1], 60 % of control; (dose: 5.0 mg/kg/injection, schedule: Q01DX010 (ip), vehicle: carboxymethylcellulose (CMC)) 40 % of control; (dose: 5.0 mg/kg/injection, schedule: Q01DX010 (ip), vehicle: saline) 36 % of control; (dose: 10.0 mg/kg/injection, schedule: Q01DX010 (ip), vehicle: saline) 5 % of control.
In the case of `O=C(Nc1ccc(C2=NCCN2)cc1)c1ccc(C(=O)Nc2ccc(C3=NCCN3)cc2)c(Cl)c1`, the T/C is 70 % of control under setting [2]; 7 % of control (dose: 14.0 mg/kg/injection, schedule: Q01DX011 (ip), vehicle: carboxymethylcellulose (CMC)); 80 % of control (dose: 28.0 mg/kg/injection, schedule: Q01DX001 (ip), vehicle: carboxymethylcellulose (CMC)); 33 % of control (dose: 55.0 mg/kg/injection, schedule: Q01DX001 (ip), vehicle: carboxymethylcellulose (CMC)).
